For orientation: TGI means the concentration giving total growth inhibition. As a reminder, the GI50 is the concentration giving 50% growth inhibition.

Assay in all cases: DTP human tumour cell line panel, 48 h
Assay [1] concerns U251 CNS.
Assay [2] relates to 786-0 renal.
In assay [3] the test system is SF-268 CNS.
Assay [4] has as its system OVCAR-5 ovarian.
Assay [5] has as its system HT29 colon.
Assay [6] relates to A549 NSCLC.
Assay [7] has as its system OVCAR-8 ovarian.
The test system of assay [8] is SNB-75 CNS.
The subject of assay [9] is NCI-H226 lung.

Values joined by “and” are separate entries in the source; they are usually repeats but may differ in a detail not shown here. Identical values can stand only once.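 Cultured in 96-well plates, cells were exposed to test compound for 48 hours across five concentrations. GI50 = concentration required for 50% inhibition of growth. TGI: total growth inhibition.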

Turning to `COC1CCC2C(NS(=O)(=O)c3ccc(C)cc3)CCCC2O1` (stereo not given) (tested in a mixture with another compound), the TGI in [1], in assay [2], in [3], in assay [4], in [5] and in assay [6] was above 34.5 µM in each case. Further, the total growth inhibition concentration (TGI) in assay [7], in assay [8] and in [9] was above 34.5 µM throughout.
Consider `C/C(CC(=O)CCC(=O)Nc1cccc(C(F)(F)F)c1)=N\NC(=O)NN`, for which the total growth inhibition concentration (TGI) in [1], in assay [2], in [3], in [4], in [5] and in [6] was above 100 µM throughout. For the same compound, the total growth inhibition concentration (TGI) in [7], in assay [8] and in assay [9] was above 100 µM each time.
For the compound `CCOC(=O)CN1C(=O)c2cccc3cc([N+](=O)[O-])cc(c23)C1=O`, the TGI in [1] came to 20.3 µM; in assay [2], 26.3 µM; in assay [3], 11.1 µM; in [4], 28.9 µM; in [5] it was 25.4 µM; in assay [6], 26.6 µM. The TGI was 3.43 µM in [7], 22.2 µM in assay [8] and 23 µM in [9].
For the compound `Cc1cc(C)nc(NS(=O)(=O)c2ccc(NC(=O)c3ccc(Cl)c4c(Nc5ccc(S(=O)(=O)Nc6nc(C)cc(C)n6)cc5)c5ccccc5nc34)cc2)n1`, the total growth inhibition concentration (TGI) was 21.9 µM in assay [1]; 20.4 µM in [2]; above 100 µM in [3]; 32.4 µM in assay [4]; above 100 µM in [5]; 86.1 µM in assay [6]. For the same compound, the TGI in [7] and in assay [8] was above 100 µM each time.
Turning to `O=CN/C=C/c1cc(O)ccc1O`, the TGI in assay [1] was above 66 µM; in [2], 27.1 µM; in [3], 37.5 µM; in assay [4], above 100 µM; in assay [5], 56.5 µM; in assay [6] it was above 85.4 µM. Besides, the values for the concentration for total growth inhibition (TGI) in assay [7], in [8] and in assay [9] were 43 µM, 98.2 µM and above 88.1 µM, respectively.
On to `O=C1/C(=C/c2ccccc2)CN(C(=O)C(Cl)(Cl)Cl)C/C1=C\c1ccccc1`, for which the concentration for total growth inhibition (TGI) in [1] is 3 µM; in [2] it was 9.42 µM; in assay [3] it was 13.4 µM; in assay [4], 6.42 µM; in assay [5], 2.75 µM; in assay [6], 32.4 µM. The TGI in [7] was 3.1 µM; in assay [8] it was 12.3 µM.
On to `N#CC(c1ccc(Cl)cc1)c1cccc(C(C#N)c2ccc(Cl)cc2)n1` (stereo not given), for which the TGI in [1], in [2], in [3], in [4], in [5] and in assay [6] was above 100 µM in each case. In addition, the TGI was above 100 µM in [7], 79.4 µM in [8] and above 100 µM in assay [9].
`CN(C)C(=N)c1ccccc1`: the TGI in [1], in [2], in assay [4], in assay [5], in [6] and in assay [7] was above 100 µM each time. For the same compound, the TGI in [8] and in assay [9] was above 100 µM in each case.
`O=C(O)c1ccccc1[Se][Se]c1ccccc1C(=O)O`: the TGI in assay [1], in assay [2], in [3], in assay [5], in assay [6] and in [7] was above 100 µM each time. The concentration for total growth inhibition (TGI) in assay [8] is above 100 µM; in assay [9], 31.4 µM.
In the case of `O=C(COc1ccc(Br)cc1Br)N1N=C(c2ccc([N+](=O)[O-])o2)CC1(O)c1ccccc1` (stereo not given), the total growth inhibition concentration (TGI) in assay [1] turned out to be 22.9 µM; in assay [2] it was 44.1 µM; in assay [3], 36 µM; in assay [4], 98.2 µM; in assay [5] it was 48 µM; in assay [6], 72.2 µM. The total growth inhibition concentration (TGI) came out at 36.7 µM in assay [7], 45 µM in assay [8] and 36.4 µM in assay [9].
Turning to `COC(=O)[C@@H]1[C@H](O)[C@H](C)[C@H](O)[C@@](C)(O)/C=C\C=C(C)C(=O)Nc2c(C)c(OC(C)=O)c3c(c2O)C(=O)C(C)=C2OCOC(=C23)C(C)=C[C@@](C)(O)[C@H](O)[C@@H](C)[C@H]1OC(C)=O`, the GI50 in assay [1] is above 66.9 µM; in assay [3], above 66.9 µM; in assay [6], above 66.9 µM; in [7] it was 42.3 µM. Also, the concentration for total growth inhibition (TGI) was > 100 µM and > 66.9 µM and 62.8 µM in [1]; above 100 µM in assay [2]; above 100 µM in [3]; above 100 µM in [4]; > 100 µM and 66.9 µM in [5]; above 100 µM in assay [6]. Besides, the concentration for total growth inhibition (TGI) in assay [7] is > 100 µM and 66.9 µM; in [8], above 100 µM; in [9], above 100 µM.
Regarding `O=C(O)CCc1coc2ccc(O)cc12`, the total growth inhibition concentration (TGI) in assay [1], in assay [2], in assay [5], in assay [6], in assay [7] and in assay [8] was above 100 µM throughout.
With `COc1ccc2c3c1C(=O)CCCC3CO2` (stereo not given), the TGI in [1], in assay [2], in assay [3], in assay [4], in assay [5] and in [6] was above 100 µM throughout. The TGI in assay [7], in assay [8] and in assay [9] was above 100 µM each time.
As to `C=C1C(=O)C23CC1CCC2C12CO[C@@H]4OCC(C)(CC[C@@H]1OC3=O)C42` (stereo not given in full), the TGI in [1] came out at 27.4 µM; in assay [2], 5.71 µM; in [3], 12.7 µM; in assay [4] it was 29.2 µM; in assay [5] it was 10.3 µM; in assay [6] it was 25.1 µM. Besides, the TGI was 9.78 µM in assay [7], 30.8 µM in assay [8] and 38.4 µM in assay [9].
As to `COc1ccccc1C12OC(=O)C1(C)Oc1ccccc1C2=O` (stereo not given), the TGI in [1], in assay [2], in assay [3], in assay [4], in assay [5] and in assay [6] was above 100 µM in each case. Besides, the total growth inhibition concentration (TGI) in assay [7], in assay [8] and in assay [9] was above 100 µM in each case.
Regarding `O=S1(=O)c2ccccc2NC(c2ccc3ccccc3c2)CC1c1ccccc1F` (stereo not given), the concentration for total growth inhibition (TGI) in [2], in assay [3], in [4], in [5], in [6] and in assay [7] was above 100 µM throughout. In addition, the concentration for total growth inhibition (TGI) in [8] and in [9] was above 100 µM throughout.
As for `COC(CN1C(=O)c2cccc3cccc(c23)C1=O)OC`, the total growth inhibition concentration (TGI) in assay [1], in assay [2], in [3], in [4], in assay [5] and in assay [6] was above 100 µM throughout. For the same compound, the TGI in assay [7], in assay [8] and in assay [9] was above 100 µM in each case.
For `Clc1cc2nsnc2c(Cl)n1`, the TGI in [1] was 40.1 µM; in [2], 31.2 µM; in assay [3] it was 79.4 µM; in assay [4] it was above 100 µM; in assay [5] it was 49.3 µM; in assay [6] it was above 100 µM. The compound also showed a TGI in [9] of 42.3 µM.
For `O=C1C2C(C(=O)N1OS(=O)(=O)c1ccccc1)N(Cc1ccccc1)C(=O)N2Cc1ccccc1` (stereo not given), the TGI in assay [1], in [2], in [3], in [4], in assay [5] and in assay [6] was above 100 µM each time. Further, the TGI in assay [8] and in assay [9] was above 100 µM each time.
On to `COc1ccc2c(C3=C(c4cn(C)c5ccccc45)C(=O)NC3=O)cn(C)c2c1`, for which the GI50 was 0.102 µM in assay [1]; 0.255 µM in assay [2]; 0.292 µM in assay [3]; 0.098 µM in assay [5]; 0.135 µM in assay [6]; 0.15 µM in assay [7]. Further, the GI50 was 0.0567 µM in assay [8] and 2.63 µM in [9]. In addition, the TGI in assay [1] is above 25 µM; in [2], above 25 µM; in assay [3] it was above 25 µM; in assay [5], above 14 µM; in assay [6] it was above 25 µM; in assay [7], above 25 µM. Further, the TGI in assay [8] and in assay [9] was above 25 µM throughout.
`COC(=O)CC1CCN(C#N)CC1CC[N+](=O)[O-]` (stereo not given): the concentration for total growth inhibition (TGI) in assay [1], in assay [2], in assay [3], in [6], in [7] and in assay [8] was above 100 µM throughout. Also, in assay [9], the TGI was above 100 µM.
For `COc1cc2c(cc1OC)-c1c3cc(O)ccc3nn[n+]1CC2`, the total growth inhibition concentration (TGI) in [1], in [2], in [3], in [5], in assay [6] and in assay [7] was above 100 µM throughout. For the same compound, the TGI in [8] and in assay [9] was above 100 µM throughout.

These data come from PubChem BioAssay (NCI).
